Assay results taken from US8952024B2, “Herbicidal pyrimidone derivatives” (E I du Pont de Nemours and Company, priority 2009, dated 2015).

How the values were obtained:
Format in all cases: in vivo
rice (Oryza sativa) = experiment: Test B flooded paddy test; details: for Plant response rating, Flood, Rice: 250 g ai/ha, flooded paddy test, visual rating on 0 to 100 scale (0 no effect, 100 complete control) after 13 to 15 days; for Plant response rating, Rice: Flood (flooded paddy test), 13 to 15 days
How it was run: (§1)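 Greenhouse-held for 13 to 15 days, treated pots were compared visually with controls and scored 0–100 (0, no effect). Treatment had been made into paddy water kept at 3 cm above the soil, with plants at the 2-leaf stage.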

[1] = tested on: umbrella sedge (Cyperus difformis); experiment: Test B flooded paddy test; details: for Plant response rating, Flood, Sedge, Umbrella: 250 g ai/ha, flooded paddy test, visual rating on 0 to 100 scale (0 no effect, 100 complete control) after 13 to 15 days; for Plant response rating, Sedge, Umbrella: Flood (flooded paddy test), 13 to 15 days
How it was run: as §1

[2] = tested on: barnyardgrass (Echinochloa crus-galli); experiment: Test B flooded paddy test; details: for Plant response rating, Flood, Barnyardgrass: 250 g ai/ha, flooded paddy test, visual rating on 0 to 100 scale (0 no effect, 100 complete control) after 13 to 15 days; for Plant response rating, Barnyardgrass: Flood (flooded paddy test), 13 to 15 days
How it was run: as §1

[3] = tested on: ducksalad (Heteranthera limosa); experiment: Test B flooded paddy test; details: for Plant response rating, Flood, Ducksalad: 250 g ai/ha, flooded paddy test, visual rating on 0 to 100 scale (0 no effect, 100 complete control) after 13 to 15 days; for Plant response rating, Ducksalad: Flood (flooded paddy test), 13 to 15 days
How it was run: as §1

corn (Zea mays) = experiment: Test A pre-/postemergence plant response
Description: (§2) Seeds of barnyardgrass (Echinochloa crus-galli), large crabgrass (Digitaria sanguinalis), giant foxtail (Setaria faberii), morningglory (Ipomoea spp.), pigweed (Amaranthus retroflexus), velvetleaf (Abutilon theophrasti), wheat (Triticum aestivum) and corn (Zea mays) were planted into a blend of loam soil and sand and treated preemergence with a directed soil spray using test chemicals formulated in a non-phytotoxic solvent mixture which included a surfactant. At the same time these species were also treated with postemergence applications of test compounds formulated in the same manner.
(§3) Plants ranged in height from two to ten cm and were in the one- to two-leaf stage for the postemergence treatment. Treated plants and untreated controls were maintained in a greenhouse for approximately ten days, after which time all treated plants were compared to untreated controls and visually evaluated for injury. Plant response ratings, summarized in Table A, are based on a 0 to 100 scale where 0 is no effect and 100 is complete control. A dash (-) response means no test result.

[4] = tested on: wheat (Triticum aestivum); experiment: Test A pre-/postemergence plant response
Description: as §2, §3

[5] = tested on: large crabgrass (Digitaria sanguinalis); experiment: Test A pre-/postemergence plant response
Description: as §2, §3

[6] = tested on: velvetleaf (Abutilon theophrasti); experiment: Test A pre-/postemergence plant response
Description: as §2, §3

[7] = tested on: morningglory (Ipomoea spp.); experiment: Test A pre-/postemergence plant response
Description: as §2, §3

[8] = tested on: pigweed (Amaranthus retroflexus); experiment: Test A pre-/postemergence plant response
Description: as §2, §3

[9] = tested on: barnyardgrass (Echinochloa crus-galli); experiment: Test A pre-/postemergence plant response
Description: as §2, §3

[10] = tested on: giant foxtail (Setaria faberii); experiment: Test A pre-/postemergence plant response
Description: as §2, §3

[11] = 62 g ai/ha, scale 0 to 100, 0 is no effect, 100 is complete control
[12] = Postemergence, 125 g ai/ha, visual injury, 0 to 100 scale (0 no effect, 100 complete control), approx. ten days
[13] = Postemergence, 500 g ai/ha, 0 to 100 scale, 0 = no effect, 100 = complete control, approx. ten days
[14] = Preemergence, 125 g ai/ha, 0 to 100 scale, 0 = no effect, 100 = complete control
[15] = Preemergence, 500 g ai/ha, visual injury, 0 to 100 scale (0 no effect, 100 complete control), approx. ten days
[16] = 31 g ai/ha, scale of 0 to 100 where 0 is no effect and 100 is complete control
[17] = 62 g ai/ha, scale of 0 to 100 where 0 is no effect and 100 is complete control
[18] = 125 g ai/ha, scale 0 to 100, 0 is no effect, 100 is complete control
[19] = Flood, 31 g ai/ha, scale 0 to 100 (0 no effect, 100 complete control)
[20] = Postemergence, 125 g ai/ha, 0 to 100 scale where 0 is no effect and 100 is complete control

SMILES: Cc1cc(Cl)ccc1-n1c(-c2ccccc2)ncc(C(=O)C2=C(O)CCCC2=O)c1=O [Compound 43]
- Plant response rating, Flood, Rice (rice (Oryza sativa)): 40
- Plant response rating, Rice (rice (Oryza sativa); [11]): 0
- Plant response rating, Flood, Sedge, Umbrella [1]: 80
- Plant response rating, Sedge, Umbrella [1, 11]: 30
- Plant response rating, Flood, Barnyardgrass [2]: 20
- Plant response rating, Barnyardgrass [2, 11]: 20
- Plant response rating, Flood, Ducksalad [3]: 80
- Plant response rating, Ducksalad [3, 11]: 70
- Corn plant response rating (corn (Zea mays); [12]): 0
- Plant response rating, Corn (corn (Zea mays); [13]): 50
- Plant response rating, Corn (corn (Zea mays); [14]): 0
- Plant response rating, Corn (corn (Zea mays); [15]): 0
- Wheat plant response rating [4, 12]: 0
- Plant response rating, Wheat [4, 13]: 0
- Plant response rating, Wheat [4, 14]: 0
- Plant response rating, Wheat [4, 15]: 0
- Crabgrass, Large plant response rating [5, 12]: 70
- Plant response rating, Crabgrass, Large [5, 13]: 90
- Plant response rating, Crabgrass, Large [5, 14]: 50
- Plant response rating, Crabgrass, Large [5, 15]: 100
- Velvetleaf plant response rating [6, 12]: 100
- Plant response rating, Velvetleaf [6, 13]: 100
- Plant response rating, Velvetleaf [6, 14]: 60
- Plant response rating, Velvetleaf [6, 15]: 100
- Morningglory plant response rating [7, 12]: 20
- Plant response rating, Morningglory [7, 13]: 80
- Plant response rating, Morningglory [7, 14]: 0
- Plant response rating, Morningglory [7, 15]: 10
- Pigweed plant response rating [8, 12]: 100
- Plant response rating, Pigweed [8, 13]: 100
- Plant response rating, Pigweed [8, 14]: 90
- Plant response rating, Pigweed [8, 15]: 100
- Barnyardgrass plant response rating [9, 12]: 70
- Plant response rating, Barnyardgrass [9, 13]: 90
- Plant response rating, Barnyardgrass [9, 14]: 10
- Plant response rating, Barnyardgrass [9, 15]: 80
- Foxtail, Giant plant response rating [10, 12]: 60
- Plant response rating, Foxtail, Giant [10, 13]: 80
- Plant response rating, Foxtail, Giant [10, 14]: 10
- Plant response rating, Foxtail, Giant [10, 15]: 70

SMILES: CC(C)c1ncc(C(=O)C2=C(O)CCCC2=O)c(=O)n1-c1ccccc1 [Compound 60]
- Plant response rating, Flood, Rice (rice (Oryza sativa)): 15
- Plant response rating, Rice (rice (Oryza sativa); [16]): 0
- Plant response rating, Rice (rice (Oryza sativa); [17]): 0
- Plant response rating, Rice (rice (Oryza sativa); [18]): 0
- Plant response rating, Flood, Sedge, Umbrella [1]: 85
- Plant response rating, Sedge, Umbrella [1, 16]: 0
- Plant response rating, Sedge, Umbrella [1, 17]: 30
- Plant response rating, Sedge, Umbrella [1, 18]: 75
- Plant response rating, Flood, Barnyardgrass [2]: 40
- Plant response rating, Barnyardgrass [2, 16]: 0
- Plant response rating, Barnyardgrass [2, 17]: 0
- Plant response rating, Barnyardgrass [2, 18]: 30
- Plant response rating, Flood, Ducksalad [3]: 60
- Plant response rating, Ducksalad [3, 16]: 0
- Plant response rating, Ducksalad [3, 17]: 0
- Plant response rating, Ducksalad [3, 18]: 40
- Corn plant response rating (corn (Zea mays); [12]): 0
- Plant response rating, Corn (corn (Zea mays); [13]): 10
- Plant response rating, Corn (corn (Zea mays); [14]): 0
- Plant response rating, Corn (corn (Zea mays); [15]): 10
- Wheat plant response rating [4, 12]: 20
- Plant response rating, Wheat [4, 13]: 50
- Plant response rating, Wheat [4, 14]: 0
- Plant response rating, Wheat [4, 15]: 40
- Crabgrass, Large plant response rating [5, 12]: 90
- Plant response rating, Crabgrass, Large [5, 13]: 100
- Plant response rating, Crabgrass, Large [5, 14]: 90
- Plant response rating, Crabgrass, Large [5, 15]: 100
- Velvetleaf plant response rating [6, 12]: 100
- Plant response rating, Velvetleaf [6, 13]: 100
- Plant response rating, Velvetleaf [6, 14]: 80
- Plant response rating, Velvetleaf [6, 15]: 100
- Morningglory plant response rating [7, 12]: 60
- Plant response rating, Morningglory [7, 13]: 90
- Plant response rating, Morningglory [7, 15]: 80
- Pigweed plant response rating [8, 12]: 100
- Plant response rating, Pigweed [8, 13]: 100
- Plant response rating, Pigweed [8, 14]: 90
- Plant response rating, Pigweed [8, 15]: 100
- Barnyardgrass plant response rating [9, 12]: 60
- Plant response rating, Barnyardgrass [9, 13]: 90
- Plant response rating, Barnyardgrass [9, 14]: 60
- Plant response rating, Barnyardgrass [9, 15]: 90
- Foxtail, Giant plant response rating [10, 12]: 80
- Plant response rating, Foxtail, Giant [10, 13]: 90
- Plant response rating, Foxtail, Giant [10, 14]: 60
- Plant response rating, Foxtail, Giant [10, 15]: 90

SMILES: CCCn1c(-c2ccccc2F)ncc(C(=O)C2=C(O)CCCC2=O)c1=O [Compound 101]
- Plant response rating, Flood, Rice (rice (Oryza sativa)): 20
- Plant response rating, Rice (rice (Oryza sativa); [17]): 0
- Plant response rating, Rice (rice (Oryza sativa); [18]): 0
- Rice plant response rating (rice (Oryza sativa); [19]): 0
- Plant response rating, Flood, Sedge, Umbrella [1]: 65
- Plant response rating, Sedge, Umbrella [1, 17]: 20
- Plant response rating, Sedge, Umbrella [1, 18]: 30
- Sedge, Umbrella plant response rating [1, 19]: 0
- Plant response rating, Flood, Barnyardgrass [2]: 40
- Plant response rating, Barnyardgrass [2, 17]: 40
- Plant response rating, Barnyardgrass [2, 18]: 40
- Barnyardgrass plant response rating [2, 19]: 20
- Plant response rating, Flood, Ducksalad [3]: 30
- Plant response rating, Ducksalad [3, 17]: 30
- Plant response rating, Ducksalad [3, 18]: 30
- Ducksalad plant response rating [3, 19]: 20
- Plant response rating, Corn (corn (Zea mays); [20]): 0
- Plant response rating, Corn (corn (Zea mays); [13]): 10
- Plant response rating, Corn (corn (Zea mays); [14]): 0
- Plant response rating, Corn (corn (Zea mays); [15]): 0
- Plant response rating, Wheat [4, 20]: 0
- Plant response rating, Wheat [4, 13]: 0
- Plant response rating, Wheat [4, 14]: 0
- Plant response rating, Wheat [4, 15]: 0
- Plant response rating, Crabgrass, Large [5, 20]: 90
- Plant response rating, Crabgrass, Large [5, 13]: 90
- Plant response rating, Crabgrass, Large [5, 14]: 70
- Plant response rating, Crabgrass, Large [5, 15]: 90
- Plant response rating, Velvetleaf [6, 20]: 100
- Plant response rating, Velvetleaf [6, 13]: 100
- Plant response rating, Velvetleaf [6, 14]: 80
- Plant response rating, Velvetleaf [6, 15]: 100
- Plant response rating, Morningglory [7, 20]: 60
- Plant response rating, Morningglory [7, 13]: 70
- Plant response rating, Morningglory [7, 14]: 80
- Plant response rating, Morningglory [7, 15]: 80
- Plant response rating, Pigweed [8, 20]: 90
- Plant response rating, Pigweed [8, 13]: 100
- Plant response rating, Pigweed [8, 14]: 70
- Plant response rating, Pigweed [8, 15]: 80
- Plant response rating, Barnyardgrass [9, 20]: 80
- Plant response rating, Barnyardgrass [9, 13]: 90
- Plant response rating, Barnyardgrass [9, 14]: 20
- Plant response rating, Barnyardgrass [9, 15]: 70
- Plant response rating, Foxtail, Giant [10, 20]: 60
- Plant response rating, Foxtail, Giant [10, 13]: 80
- Plant response rating, Foxtail, Giant [10, 14]: 30
- Plant response rating, Foxtail, Giant [10, 15]: 50

SMILES: CCCn1c(-c2ccc(OC)cc2)ncc(C(=O)C2=C(O)CCCC2=O)c1=O [Compound 112]
- Plant response rating, Flood, Rice (rice (Oryza sativa)): 15
- Plant response rating, Rice (rice (Oryza sativa); [17]): 0
- Plant response rating, Flood, Sedge, Umbrella [1]: 90
- Plant response rating, Sedge, Umbrella [1, 17]: 85
- Plant response rating, Flood, Barnyardgrass [2]: 40
- Plant response rating, Barnyardgrass [2, 17]: 35
- Plant response rating, Flood, Ducksalad [3]: 95
- Plant response rating, Ducksalad [3, 17]: 85
- Plant response rating, Corn (corn (Zea mays); [20]): 0
- Plant response rating, Corn (corn (Zea mays); [13]): 20
- Plant response rating, Corn (corn (Zea mays); [14]): 0
- Plant response rating, Corn (corn (Zea mays); [15]): 0
- Plant response rating, Wheat [4, 20]: 0
- Plant response rating, Wheat [4, 13]: 10
- Plant response rating, Wheat [4, 14]: 0
- Plant response rating, Wheat [4, 15]: 0
- Plant response rating, Crabgrass, Large [5, 20]: 80
- Plant response rating, Crabgrass, Large [5, 13]: 90
- Plant response rating, Crabgrass, Large [5, 14]: 60
- Plant response rating, Crabgrass, Large [5, 15]: 100
- Plant response rating, Velvetleaf [6, 20]: 100
- Plant response rating, Velvetleaf [6, 13]: 100
- Plant response rating, Velvetleaf [6, 14]: 40
- Plant response rating, Velvetleaf [6, 15]: 70
- Plant response rating, Morningglory [7, 20]: 90
- Plant response rating, Morningglory [7, 13]: 100
- Plant response rating, Morningglory [7, 14]: 0
- Plant response rating, Morningglory [7, 15]: 80
- Plant response rating, Pigweed [8, 20]: 90
- Plant response rating, Pigweed [8, 13]: 100
- Plant response rating, Pigweed [8, 14]: 20
- Plant response rating, Pigweed [8, 15]: 100
- Plant response rating, Barnyardgrass [9, 20]: 60
- Plant response rating, Barnyardgrass [9, 13]: 90
- Plant response rating, Barnyardgrass [9, 14]: 0
- Plant response rating, Barnyardgrass [9, 15]: 80
- Plant response rating, Foxtail, Giant [10, 20]: 70
- Plant response rating, Foxtail, Giant [10, 13]: 80
- Plant response rating, Foxtail, Giant [10, 14]: 20
- Plant response rating, Foxtail, Giant [10, 15]: 60
